Columns and labels:
[1] = tested on: mouse-tail Bleeding time; assay: Effect on mouse-tail bleeding time; details: mice
Experimental: The tail 2 mm from tip was incised and the blood oozed was soaked with filter paper till the bleeding stops. The time elapsed from the tip incision to the stoppage of bleeding was determined as the bleeding time. Test compound (30 μM/kg), aspirin or vehicle was given orally 60 min prior to the tail incision. Each group consisted of 5 mice.

[2] = tested on: collagen and epinephrine induced thrombosis in mice; assay: Effect on mouse thrombosis: collagen and adrenaline induced pulmonary thromboembolism; assay type: in vivo
Experimental: Pulmonary thromboembolism was induced by following a method of Diminno and Silver^(1). Test compounds (30 μM/Kg) or vehicle were administered orally 60 min prior to the thrombotic challenge. A mixture of collagen (150 μg/ml) and adrenaline (50 μg/mL) was administered by the rapid intravenous injection into the tail vein to induce hind limb paralysis or death. A group of 10 animals were used to evaluate the effect of test compound, while 5 mice were used to assess effect of a standard drug, aspirin and a group of vehicle treated (n=5) mice was also used each experiment.
% Protection was expressed as: […]
Ptest is the number of animals paralyzed/dead in the test compound-treated group, and Pcontrol is the number of animals paralyzed/dead in vehicle treated group.

[3] = tested on: thrombin time (TT), prothrombin time (PT) and activated partial thromboplastin time (aPTT); assay: Evaluation of coagulation parameters (TT, PT, aPTT) in rat plasma in vitro; assay type: biochemical
Experimental: (§1) [formula] 1.4 Evaluation of coagulation parameters: Blood was collected by cardiac puncture from ether-anaesthetized rat using a syringe containing 3.2% tri-sodium citrate (9:1, v/v). Plasma was obtained by centrifugation of citrated blood at 2500×g for 15 min at 20° C. Stock solutions of the test compounds were prepared freshly in DMSO and were diluted in DMSO. Thrombin time (TT), prothrombin time (PT) and activated partial thromboplastin time (aPTT) were evaluated according to manufacturer's instructions supplied with kits (Stago, France) and measured by Coagulometer (Stago, France)^(4). In each set of experiment effect of DMSO on these parameters was also assessed and was used to calculate change in TT, PT or aPTT. 1.5 Rabbit venous thrombosis model: Experiments were performed on New Zealand white strain rabbits (2-3 kg) either sex. Escherichia coli LPS strain 1055:B5 (Sigma Chemicals, USA) was injected intravenously via ear vein (1 μg/kg)^(5,6). Jugular veins on both sides were exposed and dissected free from surrounding tissue. Two loose surer were placed 1.5 cm apart and all collateral veins were ligated. Four hours after E. coli endotoxin injection (animal is watched for any signs of hypersensitivity reaction during this period), stasis was established and maintained for 45 min by tightening the two sutures. Ligated segments were removed and opened longitudinally and the thrombus was carefully removed and weighed. Heparin sodium (Beparine from beef intestinal mucosa ≧140 USP units/mg; Biological E. Limited, India) was given in doses of (0.5, 0.25, 0.1 mg/kg i.v., via ear vein) 5 min before stasis. 1.6 Effect of compound (i) on human platelet aggregation in vitro: Platelet aggregation study was done on human platelets following isolation of PRP from the human blood as described above (1.3). Aggregation was induced by collagen (10 μg/ml, 5 μg/ml), ADP (10 μM) and thrombin (0.5 U/ml). 2. Results: Effect of test compounds is indicated in the following table (1) against collagen and epinephrine induced thrombosis in mice, which is a primary screening model to detect antithrombotic efficacy of the test agents. At the same dose these compounds were also evaluated for their effect on the bleeding time in mouse (Table 1).
(§2) Effect on venous thrombosis model in rabbit: The selected compounds were evaluated at 10 μM/Kg and 30 μM/kg dose for their efficacy against stasis induced thrombosis in LPS treated rabbits. […] Ex vivo effect of selective compounds on rat platelet aggregation: Blood was collected in sodium citrate to obtain PRP and evaluate the ex vivo effect of selective compounds ((i), (ii), (iii) at 30 μM/kg administered by the ip route) against ADP, collagen, phorbol myristate ester (PMA) calcium ionophore (A23187), or thrombin induced aggregation. It was observed that all these compounds were consistent against collagen-induced platelet aggregation (Table 3). (iii) inhibited ADP (10 μM), collagen (10 μg/ml), PMA (1.5 μM), and thrombin (0.64 U/ml) induced platelet aggregation while no inhibition was found against calcium ionophore A23187 (2.5 μg/ml) induced platelet aggregation. […] Effect on clotting parameters: The selected compounds were also tested in vitro for their effect on thrombin time (TT), prothrombin time (PT) and activated partial thromboplastin time (aPTT) at 100 μg/ml and 200 μg/ml in vitro (Table 4). The test compounds at 100 μg/ml had no significant effect of on these parameters. Some effect was though seen on PT at 200 μg/ml concentration, but the concentration seems to be quite high.

[4] = tested on: stasis induced thrombosis in LPS treated rabbits; assay: Rabbit venous thrombosis model (stasis induced thrombosis in LPS treated rabbits); assay type: in vivo, New Zealand white strain rabbits
Experimental: as §1, §2
Values are Mean±; Compound (i); n=2, Compound (ii); n=4, Compound (iii), n=4 [n is no. of observations in 2 or more animals at 10 μM/Kg or 30 μM/Kg p.o. administered 2 h prior to the stasis] or vehicle control [n=10 observations in five animals]. In heparin treated group n=6 observations for each dose in nine animals.

[5] = tested on: rat platelet aggregation; assay: Ex vivo effect on rat platelet aggregation (PRP, aggregometer); assay type: cell-based, Sprague Dawley rats; details: 30 μM/kg ip; for % Aggregation / % Inhibition: rat PRP
Experimental: Sodium citrate: The blood was centrifuged at 275×g for 20 min and the platelet rich plasma (PRP) was collect. The remaining blood was further centrifuged at 1500 g for 15 min at 20° C. to obtain platelet poor plasma (PPP). The platelet count in the PRP was adjusted to 2×10^8 cells/ml by using PPP. Adenosine-5′-diphosphate (ADP), thrombin, collagen, calcium ionophore A23187 or phorbol myristate ester (PMA) induced aggregation was monitored on a dual channel aggregometer (Chrono-log, USA). The test compound was incubated with PRP or 5 min before the addition of aggregation on inducing agent. Percent inhibition of the test compounds at various concentrations was calculated as follows: […]
as §2

[6] = 30 μM/kg orally 60 min prior to collagen + adrenaline challenge
[7] = 10 μM/Kg dose p.o. 2 h prior to the stasis
[8] = 30 μM/Kg dose p.o. 2 h prior to the stasis

Question: Which results are given for `CC(=O)Oc1ccccc1C(=O)O` [Aspirin, reference compound]?
Answer: Bleeding time (BT) % increase (1 hr) ([1]; 30 mg/Kg (aspirin)): 125 ± 6 (n = 30) %; Antithrombotic activity (AT) (% protection) ([2]; 30 mg/Kg (aspirin, standard drug)): 38 ± 3 (n = 24) %

Question: For `COC(=O)C1Cc2c([nH]c3ccccc23)CN1S(=O)(=O)c1ccccc1C(F)(F)F` (racemic) [j, 2[2-trifluoromethylbenzenesulfonyl]-1,2,3,4,-tetrahydro-9H-pyrido[3,4-b]in-dole-3-carboxylic acid ester], which “Bleeding time (BT) % increase (1 hr)” value ([1]; 30 μM/kg orally 60 min prior to tail incision) is on record?
Answer: The value was 150%.

Question: And the “Antithrombotic activity (AT) (% protection)” value [2, 6]?
Answer: Its value is 56%.

Question: Which results are given for `COc1ccc(S(=O)(=O)N2Cc3[nH]c4ccccc4c3CC2C(N)=O)cc1` (stereo not shown) [Compound (ii), 2[-4-methoxybenzenesulfonyl]-1,2,3,4,-tetrahydro-9H-pyrido[3,4-b]indole-3-carboxylic acid amide]?
Answer: Activated partial thromboplastin time (aPTT) % Change ([3]; 100 μg/ml in vitro): 13 ± 7%; Prothrombin time (PT) % Change ([3]; 100 μg/ml in vitro): 9 ± 5%; Thrombin time (TT) % Change ([3]; 100 μg/ml in vitro): 9 ± 5%; Activated partial thromboplastin time (aPTT) % Change ([3]; 200 μg/ml in vitro): 11 ± 4%; Prothrombin time (PT) % Change ([3]; 200 μg/ml in vitro): 14 ± 7%; Thrombin time (TT) % Change ([3]; 200 μg/ml in vitro): 9 ± 4%; % Reduction (thrombus wt.) [4, 7]: −67%; Thrombus wt. [4, 7]: 79 ± 9; % Reduction (thrombus wt.) [4, 8]: 88%; Thrombus wt. [4, 8]: 5 ± 4; % Aggregation ([5]; A23187 (2.5 μg/ml) induced): 51 ± 5%; % Inhibition ([5]; A23187 (2.5 μg/ml) induced): 54 ± 4%; inhibition of calcium ionophore A23187 induced platelet aggregation (in words) ([5]; A23187 (2.5 μg/ml), rat): inhibited; % Aggregation ([5]; ADP (10 μM) induced): 35 ± 5%; % Inhibition ([5]; ADP (10 μM) induced): 26 ± 10%; inhibition of ADP induced platelet aggregation (in words) ([5]; ADP (10 μM), rat): inhibited; % Aggregation ([5]; Collagen (10 μg/ml) induced): 5 ± 1%; % Inhibition ([5]; Collagen (10 μg/ml) induced): 79 ± 7%; % Aggregation ([5]; PMA (1.5 μM) induced): 44 ± 12%; % Inhibition ([5]; PMA (1.5 μM) induced): 26 ± 0.3%; inhibition of PMA induced platelet aggregation (in words) ([5]; PMA (1.5 μM), rat): inhibited; % Aggregation ([5]; Thrombin (0.64 U/ml) induced): 44 ± 10%; % Inhibition ([5]; Thrombin (0.64 U/ml) induced): 4 ± 10%; inhibition of collagen induced platelet aggregation (in words) ([5]; collagen (10 μg/ml), rat): inhibited; inhibition of thrombin induced platelet aggregation (in words) ([5]; thrombin (0.64 U/ml), rat): did not inhibit; protection against collagen and epinephrine induced thrombosis (in words) ([2]; 30 μM/kg): exhibited significant protection; Antithrombotic activity (AT) (% protection) [2, 6]: 70 ± 10 (n = 3) %
